According to patent US20240116985A1, “STAPLED PEPTIDES AND METHODS THEREOF” (priority 2020, published 2024):
In brackets after ≈: the same amount, converted by molar mass. Where two headings read alike, the source gives them in different places.

Legend:
[1] = target: T1, full-length beta-Catenin (Uniprot ID P35222) (Homo sapiens, UniProt P35222); assay: Fluorescence polarization IC50 (beta-catenin / 5FAM-TCF4 10-53 competition); assay type: binding
T1 construct: 10 nM full-length beta-Catenin (Uniprot ID P35222)
T1 sequence (P35222 1-781): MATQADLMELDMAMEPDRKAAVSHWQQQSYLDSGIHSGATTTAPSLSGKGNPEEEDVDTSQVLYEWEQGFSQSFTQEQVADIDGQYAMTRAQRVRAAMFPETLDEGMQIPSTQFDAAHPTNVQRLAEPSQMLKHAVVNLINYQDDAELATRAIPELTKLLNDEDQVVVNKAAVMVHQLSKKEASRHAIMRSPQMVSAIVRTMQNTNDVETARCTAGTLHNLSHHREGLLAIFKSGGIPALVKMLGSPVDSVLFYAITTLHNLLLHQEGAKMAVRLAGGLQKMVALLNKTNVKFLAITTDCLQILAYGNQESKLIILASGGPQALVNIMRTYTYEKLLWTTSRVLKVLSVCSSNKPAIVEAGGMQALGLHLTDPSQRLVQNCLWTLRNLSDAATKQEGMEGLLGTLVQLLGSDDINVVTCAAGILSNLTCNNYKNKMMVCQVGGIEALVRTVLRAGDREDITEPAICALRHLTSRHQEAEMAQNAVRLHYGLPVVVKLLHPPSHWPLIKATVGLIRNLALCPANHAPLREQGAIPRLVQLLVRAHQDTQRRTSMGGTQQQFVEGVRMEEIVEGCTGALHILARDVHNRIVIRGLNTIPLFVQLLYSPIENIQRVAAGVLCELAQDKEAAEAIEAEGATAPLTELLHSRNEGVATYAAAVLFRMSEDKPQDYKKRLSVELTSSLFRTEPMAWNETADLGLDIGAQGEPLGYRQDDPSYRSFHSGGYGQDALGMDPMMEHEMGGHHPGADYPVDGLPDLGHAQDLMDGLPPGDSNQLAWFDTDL

CHI Log D procedure = assay type: physicochemical
Solubility in PBS = assay type: physicochemical
How it was run: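 Solubility is derived from HPLC peak areas: the ratio of the PBS supernatant peak to a 50 μM DMSO peptide peak, times 50 uM.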

[2] = Table E2-1, read-out: beta-Catenin FP IC50
[3] = fluorescence polarization, read-out: beta-Catenin FP IC50
[4] = fluorescence polarization, beta-catenin, read-out: FP EC50

chromatographic logD (CHI Log D procedure; pH 7.4, CHI Log D) | IC50 [1, 3] | IC50 ([1]; read-out: FP EC50) | CHI Log D (CHI Log D procedure; pH 7.4) | Solubility (Solubility in PBS) | IC50 ([1]; read-out: beta-Catenin FP IC50) | IC50 [1, 4] | SMILES | also measured
 | 1630 nM | 1630 nM | 2.781 | 10 µM (≈ 19.1 µg/mL) |  |  | CC[C@H](C)[C@@H]1NC(=O)[C@H](CC(=O)O)NC(=O)[C@]2(CC=CCCCC3(CCCC=CCCCCCC[C@@](C)(C(=O)N[C@@H](Cc4ccccc4)C(=O)N[C@@H](Cc4csc5ccccc45)C(=O)N[C@@H](CCC(N)=O)C(N)=O)NC(=O)[C@H](CCC(N)=O)NC(=O)[C@H](Cc4ccccc4)NC(=O)[C@H](C)NC(=O)[C@H](C)NC(=O)[C@H](CCCNC(=N)N)NC(=O)[C@H](CC(=O)O)NC3=O)NC1=O)CCCN2C(C)=O (stereo partly drawn) [I-613, Ac-PL3-Asp-Ile-B5-Asp-Arg-Ala-Ala-Phe-Gln-S8-Phe-BztA-Gln-NH2] | 
 |  |  | 2.06 | 10 µM (≈ 19.9 µg/mL) | 324 nM | 324 nM | CC(=O)N1CCC[C@]12CC=CCCCC1(CCCC=CCCCOC(=O)N3CC[C@@](C(=O)N[C@@H](Cc4ccccc4Cl)C(=O)N[C@@H](Cc4csc5ccccc45)C(=O)N[C@@H](CCC(N)=O)C(N)=O)(C3)NC(=O)[C@H](CC(C)C)NC(=O)[C@H](Cc3ccccc3)NC(=O)[C@H](C)NC(=O)[C@H](C)NC(=O)[C@H](CCC(=O)O)NC(=O)[C@H](CC(=O)O)NC1=O)NC(=O)[C@H](CC1CCCCC1)NC(=O)[C@H](CC(=O)O)NC2=O (stereo partly drawn) [I-1077, Ac-PL3-Asp-Cha-B5-Asp-Glu-Ala-Ala-Phe-Leu-PyrS2-2C1F-BztA-Gln-NH2] | 
 | 1910 nM |  | 2.585 | 10 µM (≈ 18.5 µg/mL) |  | 1910 nM | CC(=O)N1CCC[C@]12CC=CCCCC1(CCCC=CCCCCCC[C@@](C)(C(=O)N[C@@H](Cc3ccccc3)C(=O)N[C@@H](Cc3csc4ccccc34)C(=O)N[C@@H](CCC(N)=O)C(N)=O)NC(=O)[C@H](C(C)C)NC(=O)[C@H](Cc3cccc(F)c3F)NC(=O)[C@H](C)NC(=O)[C@H](C)NC(=O)[C@H](CCC(=O)O)NC(=O)[C@H](CC(=O)O)NC1=O)NC(=O)[C@H](C)NC(=O)[C@H](CC(=O)O)NC2=O (stereo partly drawn) [I-391, Ac-PL3-Asp-Ala-B5-Asp-Glu-Ala-Ala-23FF-Val-S8-Phe-BztA-Gln-NH2] | 
2.17 |  |  |  |  |  |  | CC(=O)N1CCC[C@]12CC=CCCCC1(CCCC=CCCCCCC[C@@](C)(C(=O)N[C@@H](Cc3cccc(F)c3)C(=O)N[C@@H](Cc3csc4ccccc34)C(=O)N[C@@H](CCC(N)=O)C(N)=O)NC(=O)[C@H](C)NC(=O)[C@H](Cc3ccccc3)NC(=O)[C@H](C)NC(=O)[C@H](C)NC(=O)[C@H](CCC(=O)O)NC(=O)[C@H](CC(=O)O)NC1=O)NC(=O)[C@H](C)NC(=O)[C@H](CC(=O)O)NC2=O (stereo partly drawn) [I-372, Ac-PL3-Asp-Ala-B5-Asp-Glu-Ala-Ala-Phe-Ala-S8-3FF-BztA-Gln-NH2] | IC50 [1, 2]: 2090 nM; Solubility (Solubility in PBS; Solubility (uM)): 44 µM (≈ 79.3 µg/mL)
2.58 | 3830 nM |  |  |  |  |  | CC[C@H](C)[C@@H]1NC(=O)[C@H](CC(=O)O)NC(=O)[C@]2(CC=CCCCC3(CCCC=CCCCCCC[C@@](C)(C(=O)N[C@@H](Cc4ccccc4)C(=O)N[C@@H](Cc4csc5ccccc45)C(=O)N[C@@H](CCC(N)=O)C(N)=O)NC(=O)[C@H](CCC(N)=O)NC(=O)[C@H](Cc4ccc(-c5ccccc5)cc4)NC(=O)[C@H](C)NC(=O)[C@H](C)NC(=O)[C@H](CCC(=O)O)NC(=O)[C@H](CC(=O)O)NC3=O)NC1=O)CCCN2C(C)=O (stereo partly drawn) [I-723, Ac-PL3-Asp-Ile-B5-Asp-Glu-Ala-Ala-Bip-Gln-S8-Phe-BztA-Gln-NH2] | Solubility (Solubility in PBS; Solubility (uM)): 29 µM (≈ 56.8 µg/mL)
 |  |  | 1.851 | 46 µM (≈ 90.3 µg/mL) | 2320 nM | 2320 nM | CCN(CC(=O)O)C[C@@H]1NC(=O)[C@H](CC(=O)O)NC(=O)C2(CCCC=CCCCOC(=O)N3CC[C@@](C(=O)N[C@@H](Cc4ccsc4)C(=O)N[C@@H](Cc4csc5ccccc45)C(=O)N[C@@H](CCC(N)=O)C(N)=O)(C3)NC(=O)[C@H]([C@@H](C)O)NC(=O)[C@H](Cc3ccccc3)NC(=O)[C@H](C)NC(=O)[C@H](C)NC1=O)CCCC=CC[C@]1(CCCN1C(C)=O)C(=O)N[C@@H](CC(=O)O)C(=O)N[C@@H](CC(C)(C)C)C(=O)N2 (stereo partly drawn) [I-969, Ac-PL3-Asp-Npg-B5-Asp-EtGA-Ala-Ala-Phe-Thr-PyrS2-3Thi-BztA-Gln-NH2] | 
2.08 |  |  |  | 50 µM (≈ 95.9 µg/mL) | 5 nM |  | CC(=O)N1CCC[C@]12CC=CCCCC1(CCCC=CCCCOC(=O)N3CC[C@@](C(=O)N[C@@H](Cc4ccsc4)C(=O)N[C@@H](Cc4csc5ccccc45)C(=O)N[C@@H](CCC(N)=O)C(N)=O)(C3)NC(=O)[C@H](CC(N)=O)NC(=O)[C@H](Cc3ccccc3)NC(=O)[C@H](C)NC(=O)[C@H](C)NC(=O)[C@H](CC(=O)O)NC(=O)[C@H](CC(=O)O)NC1=O)NC(=O)[C@H](CCC(C)C)NC(=O)[C@H](CC(=O)O)NC2=O (stereo partly drawn) [I-787, Ac-PL3-Asp-hLeu-B5-Asp-Asp-Ala-Ala-Phe-Asn-PyrS2-3Thi-BztA-Gln-NH2] | 

Further lines, the molecule ahead of its results:

SMILES | chromatographic logD (CHI Log D procedure; pH 7.4, CHI Log D) | IC50 [1, 3] | IC50 ([1]; read-out: FP EC50) | CHI Log D (CHI Log D procedure; pH 7.4) | Solubility (Solubility in PBS) | IC50 ([1]; read-out: beta-Catenin FP IC50) | IC50 [1, 4] | also measured
CC(=O)N1CCC[C@]12CC=CCCCC1(CCCC=CCCCCCC[C@@](C)(C(=O)N[C@@H](Cc3ccccc3)C(=O)N[C@@H](Cc3c[nH]c4ccccc34)C(=O)N[C@@H](CCC(N)=O)C(N)=O)NC(=O)[C@H](C(C)C)NC(=O)C(Cc3cncn3C)NC(=O)[C@H](C)NC(=O)[C@H](C)NC(=O)[C@H](CC(=O)O)NC(=O)[C@H](CC(=O)O)NC1=O)NC(=O)[C@H](C)NC(=O)[C@H](CC(=O)O)NC2=O (single isomer, unassigned) [I-331, Ac-PL3-Asp-Ala-B5-Asp-Asp-Ala-Ala-3meH-Val-S8-Phe-Trp-Gln-NH2] | 2.02 |  |  |  |  |  |  | IC50 [1, 2]: 5000 nM; solubility at 15 min (Solubility in PBS; Solubility (uM)): 41 µM (≈ 73.2 µg/mL)
CC[C@@H]1NC(=O)[C@H](CC(=O)O)NC(=O)[C@]2(CC=CCCCC3(CCCC=CCCCCCC[C@@](C)(C(=O)N[C@@H](Cc4ccccc4)C(=O)N[C@@H](Cc4csc5ccccc45)C(=O)N[C@@H](Cc4c[nH]cn4)C(N)=O)NC(=O)[C@H](CC(N)=O)NC(=O)[C@H](Cc4ccccc4)NC(=O)[C@H](C)NC(=O)[C@H](C)NC(=O)[C@H](CC(=O)O)NC(=O)[C@H](CC(=O)O)NC3=O)NC1=O)CCCN2C(C)=O (stereo partly drawn) [I-575, Ac-PL3-Asp-Abu-B5-Asp-Asp-Ala-Ala-Phe-Asn-S8-Phe-BztA-His-NH2] |  | 21 nM | 21 nM | 2.21 | 46 µM (≈ 84.5 µg/mL) |  |  | 
CC(=O)N1CCC[C@]12CC=CCCCC1(CCCC=CCOC(=O)N(C)CCC[C@@](C)(C(=O)N[C@@H](Cc3ccsc3)C(=O)N[C@@H](Cc3csc4ccccc34)C(=O)N[C@@H](CCC(N)=O)C(N)=O)NC(=O)[C@H](CC(N)=O)NC(=O)[C@H](Cc3ccccc3)NC(=O)[C@H](C)NC(=O)[C@H](C)NC(=O)[C@H](CC(=O)O)NC(=O)[C@H](CC(=O)O)NC1=O)NC(=O)[C@H](CC(C)(C)C)NC(=O)[C@H](CC(=O)O)NC2=O (stereo partly drawn) [I-766, Ac-PL3-Asp-Npg-B5-Asp-Asp-Ala-Ala-Phe-Asn-SeN-3Thi-BztA-Gln-NH2] |  |  | 55 nM | 1.853 | 50 µM (≈ 96 µg/mL) | 55 nM |  | 
C[C@@H]1NC(=O)[C@H](C)NC(=O)[C@H](CC(=O)O)NC(=O)[C@H](CC(=O)O)NC(=O)C2(CCCC=CCCCOC(=O)N3CC[C@@](C(=O)N[C@@H](Cc4ccccc4Cl)C(=O)N[C@@H](Cc4csc5ccccc45)C(=O)N[C@@H](C(N)=O)[C@H](C)O)(C3)NC(=O)[C@H]([C@@H](C)O)NC(=O)[C@H](Cc3ccccc3)NC1=O)CCCC=CC[C@]1(CCCN1C(=O)CN=[N+]=[N-])C(=O)N[C@@H](CC(=O)O)C(=O)N[C@@H](CC(C)(C)C)C(=O)N2 (stereo partly drawn) [I-1060, AzAc-PL3-Asp-Npg-B5-Asp-Asp-Ala-Ala-Phe-Thr-PyrS2-2C1F-BztA-dThr-NH2] |  |  |  |  | 10 µM (≈ 19.5 µg/mL) |  |  | IC50 ([1]; FP EC50 (nM), fluorescence polarization, beta-catenin): 38 nM; chromatographic logD (CHI Log D procedure; pH 7.4): 2.6
CC(=O)N1CCC[C@]12CC=CCCCC1(CCCC=CCCCCCC[C@@](C)(C(=O)N[C@@H](Cc3ccccc3)C(=O)N[C@@H](Cc3c[nH]c4ccccc34)C(=O)N[C@@H](CCC(N)=O)C(N)=O)NC(=O)[C@H](C(C)C)NC(=O)[C@H](Cc3ccco3)NC(=O)[C@H](C)NC(=O)[C@H](C)NC(=O)[C@H](CC(=O)O)NC(=O)[C@H](CC(=O)O)NC1=O)NC(=O)[C@H](C)NC(=O)[C@H](CC(=O)O)NC2=O (stereo partly drawn) [I-328, Ac-PL3-Asp-Ala-B5-Asp-Asp-Ala-Ala-2FurA-Val-S8-Phe-Trp-Gln-NH2] |  |  |  | 1.983 | 44 µM (≈ 77.9 µg/mL) |  | 1910 nM | IC50 [1, 2]: 1910 nM
CC(=O)N1CCC[C@]12CC=CCCCC1(CCCC=CCCCCCC[C@@](C)(C(=O)N[C@@H](Cc3ccccc3)C(=O)N[C@@H](Cc3csc4ccccc34)C(=O)N[C@@H](Cc3c[nH]cn3)C(N)=O)NC(=O)[C@H](CC(N)=O)NC(=O)[C@H](Cc3ccccc3)NC(=O)[C@H](C)NC(=O)[C@H](C)NC(=O)[C@H](CCC(=O)O)NC(=O)[C@H](CC(=O)O)NC1=O)NC(=O)[C@H](C)NC(=O)[C@H](CC(=O)O)NC2=O (stereo partly drawn) [I-422, Ac-PL3-Asp-Ala-B5-Asp-Glu-Ala-Ala-Phe-Asn-S8-Phe-BztA-His-NH2] |  | 27 nM | 27 nM | 2.136 | 24 µM (≈ 44.1 µg/mL) |  |  | 
